Legend:
Test in all cases: Kinase inhibitor library screening, PrestoBlue cell viability, 1 or 10 μM, 72 h
[1] = system: IGR37-XP cells (Vemurafenib-resistant)
501Mel cells (parental) = conditions: 72 h
Summary of the method: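 Single-point screen at two doses over three days. Parental and BRAF-inhibitor-resistant sublines (XP: Vemurafenib; GP: Dabrafenib) were assessed by PrestoBlue viability, reported relative to untreated cells.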

A375 cells (parental) = system: A375 cells (parental)
[2] = system: 501Mel-GP cells (Dabrafenib-resistant); conditions: 72 h
[3] = system: A375-XP cells (Vemurafenib-resistant)
[4] = system: IGR37-GP cells (Dabrafenib-resistant)
[5] = system: A375-GP cells (Dabrafenib-resistant)
[6] = system: 501Mel-XP cells (Vemurafenib-resistant); conditions: 72 h
IGR37 cells (parental) = system: IGR37 cells (parental)
[7] = IGR37 Parental, 1μΜ, 72 h, in %

SMILES: CCC(=O)N1CCN(c2ccc(-n3c(=O)ccc4cnc5ccc(-c6cnc7ccccc7c6)cc5c43)cc2C(F)(F)F)CC1 [Torin 1]
- Cell viability in kinase inhibitor library screening, IGR37 XP, 10μΜ ([1]; IGR37 XP, 10μΜ, 72 h): 5.2%
- Cell viability in kinase inhibitor library screening, IGR37 XP, 1μΜ ([1]; IGR37 XP, 1μΜ, 72 h, in %): 30.3
- Cell viability in kinase inhibitor library screening, 501Mel Parental, 1μΜ (501Mel cells (parental); 501Mel Parental, 1μΜ, in %): 15.1
- Cell viability in kinase inhibitor library screening, 501Mel Parental, 10μΜ (501Mel cells (parental); 501Mel Parental, 10μΜ, in %): 3.3
- Cell viability in kinase inhibitor library screening, A375 Parental, 10μΜ (A375 cells (parental); A375 Parental, 10μΜ, 72 h): 7.2
- Cell viability in kinase inhibitor library screening, A375 Parental, 1μΜ (A375 cells (parental); A375 Parental, 1μΜ, 72 h): 20.5
- Cell viability in kinase inhibitor library screening, 501Mel GP, 1μΜ ([2]; 501Mel GP, 1μΜ, in %): 20.9
- Cell viability in kinase inhibitor library screening, 501Mel GP, 10μΜ ([2]; 501Mel GP, 10μΜ, in %): 10.6
- Cell viability in kinase inhibitor library screening, A375 XP, 1μΜ ([3]; A375 XP, 1μΜ, 72 h): 20.4
- Cell viability in kinase inhibitor library screening, A375 XP, 10μΜ ([3]; A375 XP, 10μΜ, 72 h): 13.4
- Cell viability in kinase inhibitor library screening, IGR37 GP, 10μΜ ([4]; IGR37 GP, 10μΜ, 72 h): 12.5%
- Cell viability in kinase inhibitor library screening, IGR37 GP, 1μΜ ([4]; IGR37 GP, 1μΜ, 72 h, in %): 40.0
- Cell viability in kinase inhibitor library screening, A375 GP, 1μΜ ([5]; A375 GP, 1μΜ, 72 h): 22.1
- Cell viability in kinase inhibitor library screening, A375 GP, 10μΜ ([5]; A375 GP, 10μΜ, 72 h): 6.9
- Cell viability in kinase inhibitor library screening, 501Mel XP, 1μΜ ([6]; 501Mel XP, 1μΜ, in %): 14.1
- Cell viability in kinase inhibitor library screening, 501Mel XP, 10μΜ ([6]; 501Mel XP, 10μΜ, in %): 2.6
- Cell viability in kinase inhibitor library screening, IGR37 Parental, 1μΜ (IGR37 cells (parental); [7]): 23.8
- Cell viability in kinase inhibitor library screening, IGR37 Parental, 10μΜ (IGR37 cells (parental); IGR37 Parental, 10μΜ, 72 h, in %): 10.7

SMILES: CN(C)Cc1cccc(N/C(=C2\C(=O)Nc3cc(C(=O)N(C)C)ccc32)c2ccccc2)c1 [BIX 02189]
- cell viability, IGR37 XP, 10μΜ ([1]; IGR37 XP, 10μΜ, 72 h): 54.9%
- cell viability, IGR37 XP, 1μΜ ([1]; IGR37 XP, 1μΜ, 72 h, in %): 96.6
- cell viability, 501Mel Parental, 1μΜ (501Mel cells (parental); 501Mel Parental, 1μΜ, in %): 89.4
- cell viability, 501Mel Parental, 10μΜ (501Mel cells (parental); 501Mel Parental, 10μΜ, in %): 89.0
- cell viability, A375 Parental, 10μΜ (A375 cells (parental); A375 Parental, 10μΜ, 72 h, in %): 86.5
- cell viability, 501Mel GP, 10μΜ ([2]; 501Mel GP, 10μΜ, in %): 90.2
- cell viability, A375 XP, 1μΜ ([3]; A375 XP, 1μΜ, 72 h, in %): 99.2
- cell viability, A375 XP, 10μΜ ([3]; A375 XP, 10μΜ, 72 h, in %): 88.6
- cell viability, IGR37 GP, 10μΜ ([4]; IGR37 GP, 10μΜ, 72 h): 85.5%
- cell viability, IGR37 GP, 1μΜ ([4]; IGR37 GP, 1μΜ, 72 h, in %): 92.6
- cell viability, A375 GP, 1μΜ ([5]; A375 GP, 1μΜ, 72 h, in %): 99.5
- cell viability, A375 GP, 10μΜ ([5]; A375 GP, 10μΜ, 72 h, in %): 79.8
- cell viability, 501Mel XP, 1μΜ ([6]; 501Mel XP, 1μΜ, in %): 98.8
- cell viability, 501Mel XP, 10μΜ ([6]; 501Mel XP, 10μΜ, in %): 82.6
- cell viability, IGR37 Parental, 1μΜ (IGR37 cells (parental); [7]): 100.1

SMILES: N#Cc1c(O)c2c(-c3ccc(-c4ccccc4O)cc3)csc2[nH]c1=O [A-769662]
- cell viability (kinase inhibitor library screening) ([1]; IGR37 XP, 1μΜ, 72 h): 104.5%
- cell viability (kinase inhibitor library screening) ([1]; IGR37 XP, 10μΜ, 72 h): 84.8%
- cell viability (kinase inhibitor library screening) (501Mel cells (parental); 501Mel Parental, 1μΜ): 99.2%
- cell viability (kinase inhibitor library screening) (501Mel cells (parental); 501Mel Parental, 10μΜ): 97.1%
- cell viability (kinase inhibitor library screening) (A375 cells (parental); A375 Parental, 10μΜ, 72 h): 97.0%
- cell viability (kinase inhibitor library screening) (A375 cells (parental); A375 Parental, 1μΜ, 72 h): 105.0%
- cell viability (kinase inhibitor library screening) ([2]; 501Mel GP, 10μΜ): 87.9%
- cell viability (kinase inhibitor library screening) ([3]; A375 XP, 1μΜ, 72 h): 104.3%
- cell viability (kinase inhibitor library screening) ([4]; IGR37 GP, 10μΜ, 72 h): 94.7%
- cell viability (kinase inhibitor library screening) ([5]; A375 GP, 10μΜ, 72 h): 96.0%
- cell viability (kinase inhibitor library screening) ([6]; 501Mel XP, 1μΜ): 97.4%
- cell viability (kinase inhibitor library screening) ([6]; 501Mel XP, 10μΜ): 85.6%
- cell viability (kinase inhibitor library screening) (IGR37 cells (parental); IGR37 Parental, 1μΜ, 72 h): 105.9%
- cell viability (kinase inhibitor library screening) (IGR37 cells (parental); IGR37 Parental, 10μΜ, 72 h): 111.3%

SMILES: O=C(c1ccc(/C=C/c2n[nH]c3ccccc23)cc1)N1CCNCC1 [KW 2449]
- viability at 1 µM ([1]; Homo sapiens, IGR-37, 72 h, read-out: cell viability, IGR37 XP, 1μΜ): 104%
- viability at 10 µM ([1]; Homo sapiens, IGR-37, 72 h, read-out: cell viability, IGR37 XP, 10μΜ): 18%
- viability at 1 µM (501Mel cells (parental); Homo sapiens, read-out: cell viability, 501Mel Parental, 1μΜ): 97.3%
- viability at 10 µM (501Mel cells (parental); Homo sapiens, read-out: cell viability, 501Mel Parental, 10μΜ): 57.7%
- viability at 1 µM (A375 cells (parental); Homo sapiens, A-375, 72 h, read-out: cell viability, A375 Parental, 1μΜ): 87.5%
- viability at 10 µM (A375 cells (parental); Homo sapiens, A-375, 72 h, read-out: cell viability, A375 Parental, 10μΜ): 30.6%
- viability at 1 µM ([2]; Homo sapiens, read-out: cell viability, 501Mel GP, 1μΜ): 103%
- viability at 10 µM ([2]; Homo sapiens, read-out: cell viability, 501Mel GP, 10μΜ): 66.3%
- viability at 1 µM ([3]; Homo sapiens, A-375, 72 h, read-out: cell viability, A375 XP, 1μΜ): 94.8%
- viability at 10 µM ([3]; Homo sapiens, A-375, 72 h, read-out: cell viability, A375 XP, 10μΜ): 40.9%
- viability at 1 µM ([4]; Homo sapiens, IGR-37, 72 h, read-out: cell viability, IGR37 GP, 1μΜ): 96.4%
- viability at 10 µM ([4]; Homo sapiens, IGR-37, 72 h, read-out: cell viability, IGR37 GP, 10μΜ): 45.2%
- viability at 1 µM ([5]; Homo sapiens, A-375, 72 h, read-out: cell viability, A375 GP, 1μΜ): 93.7%
- viability at 10 µM ([5]; Homo sapiens, A-375, 72 h, read-out: cell viability, A375 GP, 10μΜ): 28%
- viability at 1 µM ([6]; Homo sapiens, read-out: cell viability, 501Mel XP, 1μΜ): 96.9%
- viability at 10 µM ([6]; Homo sapiens, read-out: cell viability, 501Mel XP, 10μΜ): 58%
- viability at 1 µM (IGR37 cells (parental); Homo sapiens, IGR-37, 72 h, read-out: cell viability, IGR37 Parental, 1μΜ): 99.6%
- viability at 10 µM (IGR37 cells (parental); Homo sapiens, IGR-37, 72 h, read-out: cell viability, IGR37 Parental, 10μΜ): 71.9%
